pIC50: −log10 of the molar value.
Test: Inhibition of Respiratory syncytial virus A2 fusion protein expressed in HEK293T cells harboring GAL4-NF-kappaB assessed as reduction in cell-cell fusion by luciferase assay

Row | Compound | pIC50
1 | CC(=O)NCc1ccc2c(c1)nc(CN1C(=O)C3(CC3)c3ccc(F)cc31)n2CCCC(F)(F)F | 6.44
2 | CS(=O)(=O)c1ccc2c(c1)nc(CN1C(=O)C3(CC3)c3ccc(F)cc31)n2CCCC(F)(F)F | 5.97
3 | CCNC(=N)c1ccc2c(c1)nc(CN1C(=O)C3(CC3)c3ccc(F)cc31)n2CCCC(F)(F)F | 6.19
4 | CC(C)CCn1c(CN2C(=O)C3(CC3)c3cccc(F)c32)nc2cc(CN)ccc21 | 8.89
5 | CC(C)CCn1c(CN2C(=O)C3(CC3)c3cc(Cl)ccc32)nc2cc(CN)ccc21 | 8.35
6 | CS(=O)(=O)CCCn1c(CN2C(=O)C3(CC3)c3ccc(F)cc32)nc2cc(CN)ccc21 | 8.59
7 | CC(C)CCn1c(CN2C(=O)C3(CC3)c3ccc(Cl)cc32)nc2cc(CN)ccc21 | 8.92
8 | CC(C)CCn1c(CN2C(=O)C3(CC3)c3ccc(F)cc32)nc2cc(CN)ccc21 | 9.30
9 | O=C(O)c1ccc2c(c1)nc(CN1C(=O)C3(CC3)c3ccc(F)cc31)n2CCCC(F)(F)F | < 4.60
10 | NCc1ccc2c(c1)nc(CN1C(=O)C3(CC3)c3cccc(F)c31)n2CCCC(F)(F)F | 9.00
11 | NCc1ccc2c(c1)nc(CN1C(=O)C3(CC3)c3ccc(F)cc31)n2C1CCOCC1 | 8.92
12 | CC(C)CCn1c(CN2C(=O)C3(CC3)c3cccc(Cl)c32)nc2cc(CN)ccc21 | 7.33
13 | O=C1N(Cc2nc3ccccc3n2CCCC(F)(F)F)c2cc(F)ccc2C12CC2 | 7.43
14 | N=C(N)NCc1ccc2c(c1)nc(CN1C(=O)C3(CC3)c3ccc(F)cc31)n2CCCC(F)(F)F | 6.74
15 | NCc1ccc2c(c1)nc(CN1C(=O)C3(CC3)c3ccc(F)cc31)n2CCCCO | 8.82
16 | O=C1N(Cc2nc3cc(Cl)ccc3n2CCCC(F)(F)F)c2cc(F)ccc2C12CC2 | 8.21
17 | CC(C)CCn1c(CN2C(=O)C3(CC3)c3c(Cl)cccc32)nc2cc(CN)ccc21 | 7.96
18 | CC(C)CCn1c(CN2C(=O)C3(CC3)c3cc(F)ccc32)nc2cc(CN)ccc21 | 9.15
19 | NCc1ccc2c(c1)nc(CN1C(=O)C3(CC3)c3ccc(F)cc31)n2C1CCC(O)CC1 (stereo not drawn) | 8.59
20 | NC(=O)c1ccc2c(c1)nc(CN1C(=O)C3(CC3)c3ccc(F)cc31)n2CCCC(F)(F)F | 7.15
21 | NCc1ccc2c(c1)nc(CN1C(=O)C3(CC3)c3ccc(F)cc31)n2CCCC(F)(F)F [Sisunatovir] | 9.05
22 | N=C(N)c1ccc2c(c1)nc(CN1C(=O)C3(CC3)c3ccc(F)cc31)n2CCCC(F)(F)F | 8.52
23 | CC(C)CCn1c(CN2C(=O)C3(CC3)c3ccccc32)nc2cc(CN)ccc21 | 9.40

Source: BindingDB's records for doi:10.1021/acs.jmedchem.0c01882 (Reviral, 2021)
